# How the values were obtained:
# Test in all cases: microbe, parasite or virus in culture
# Assay type in all cases: cell-based
# [1] = test system: ATCC 35822 Isoniazid Resistant; conditions: Mycobacterium tuberculosis, ATCC35822, 48 h
# [2] = test system: ATCC 35827 Kanamycin Resistant; conditions: Mycobacterium tuberculosis, ATCC35827, 48 h
# [3] = test system: ATCC 35820 Streptomycin Resistant; conditions: Mycobacterium tuberculosis, ATCC35820, 48 h
# [4] = test system: ATCC 35830 Ethionamide Resistant; conditions: Mycobacterium tuberculosis, ATCC35830, 48 h
# [5] = test system: ATCC 35837 Ethambutol Resistant; conditions: Mycobacterium tuberculosis, ATCC35837, 48 h
# [6] = test system: ATCC 35821 Para-aminosalicylic Resistant; conditions: Mycobacterium tuberculosis, ATCC35821, 48 h
Structure (SMILES),MIC [1],MIC [2],MIC [3],MIC [4],MIC [5],MIC [6]
O=C1Nc2ccc(Cl)cc2C1=NNC(=O)c1ccncc1 [Compound 3a],10 µg/mL,25 µg/mL,25 µg/mL,10 µg/mL,1.25 µg/mL,25 µg/mL
O=C1Nc2ccc([N+](=O)[O-])cc2C1=NNC(=O)c1ccncc1 [Compound 3c],10 µg/mL,312 µg/mL,156 µg/mL,0.5 µg/mL,0.156 µg/mL,156 µg/mL
O=C1Nc2ccc(OC(F)(F)F)cc2C1=NNC(=O)c1ccc([N+](=O)[O-])o1 [Compound 3e],5 µg/mL,5 µg/mL,25 µg/mL,0.5 µg/mL,2.5 µg/mL,0.5 µg/mL
O=C(NN=C1C(=O)N(Cc2ccccc2)c2ccccc21)c1ccc([N+](=O)[O-])o1 [Compound 3g],156 µg/mL,156 µg/mL,78 µg/mL,156 µg/mL,0.156 µg/mL,312 µg/mL
